# Measurements as given in patent US7563805B2, “Tri-, tetra-substituted-3-aminopyrrolidine derivative” (Daiichi Pharmaceutical Co., Ltd., priority 2005, dated 2009).
# Like-named read-outs stand apart in the source and are kept apart here.
# Key:
# [1] = system: Mycobacterium tuberculosis (sensitive bacteria); experiment: anti-Mycobacterium tuberculosis (sensitive bacteria) activity, MIC; assay type: cell-based
# [2] = assay type: in vivo; conditions: 30 minutes observation
# Procedure: The test substance was intracisternally administered to male Slc:ddy mice (6 animals per group), and the convulsion and death were monitored for each cage until 30 minutes after the administration. The test substance was dissolved in 5 μl of 1% aqueous solution of lactic acid, and the dose was 5, 15, or 50 μg per animal.
# P. aeruginosa, 32121 = experiment: antibacterial activity (MIC), standard method of Japanese Society of Chemotherapy; conditions: Pseudomonas aeruginosa
# [3] = system: S. pneumoniae, J24 (penicillin-intermediate resistant bacteria); experiment: as above
# [4] = potential convulsant activity upon intracisternal administration, with and without 4-biphenyl acetic acid (BPAA); conditions: 5 μg/5 μL/mouse i. cist
# Procedure: The potential convulsant activity upon intracisternal administration to mouse was also evaluated for the concomitant and administration with 4-biphenyl acetic acid (BPAA: an active metabolite of fenbufen) and in the absence of such concomitant administration. The evaluation was conducted by using 4 week old male Slc:ddY mice (6 animals per group) and intracisternally administering the test substance at a dose of 5 μg/5 μL/mouse (solvent, 0.5% lactic acid). Monitoring of the animals for the convulsion and death was started immediately after the administration and continued to 30 minutes after the administration. When used concomitantly with the BPAA, BPAA was suspended in 5% CMC, and 400 mg/kg was orally administered at a solution amount of 10 mL/kg, and the test substance was intracisternally administered 30 minutes after the BPAA.
# [5] = rat, in vivo, po
# Procedure: The Comparative compound was also evaluated by the same procedure.
# The test substance was orally administered to fasted rats (7 week old male Crj:CD IGS rats purchased from Charles River Laboratories Japan, Inc.) at a dose of 5 mg/kg.
# Animals of absorption test group (3 animals per group) were sacrificed by bleeding under etherization at 0.25, 0.5, 1, 2, 4, and 8 hours after the drug administration, and blood, lever, kidney, and lung were collected. The blood was centrifuged (3000 rpm×15 minutes, 4° C.) after coagulation to collect serum. Tissue was homogenized after adding 3 to 5 mL of 0.1 mol/l phosphate buffer (pH 7.0), and the supernatant was collected from the homogenate (3000 rpm×15 minutes, 4° C.).
# Animals of excretion test group (3 animals per group) were placed in a metabolic cage, and the urine of 0 to 4 hours and 4 to 24 hours after the administration was collected in a water-cooled container. Simultaneously with the collection of the urine, the cage was also washed with about 15 mL of 0.1 mol/l phosphate buffer (pH 7.0) to collect the urine attached to the cage. For evaluation of conjugates such as glucuronide, the collected sample was also aliquoted and hydrolyzed with an equal amount of 1 mol/l aqueous solution of sodium hydroxide, and the hydrolysate was neutralized with 0.5 mol/l hydrochloric acid and measured for its concentration. The concentration was measured by LC-MS/MS method.
# Pharmacokinetic parameters of the each drug in rat were calculated by from the time course of the average concentration by using pharmacokinetic analysis software PSAG-CP (AS Medica Inc.) in a manner not dependent on the model animal.
# CYP3A4 = CYP3A4 (Homo sapiens, UniProt P08684); experiment: mechanism-based inhibition (MBI) of CYP3A4, hydroxylation at position 1 of midazolam; conditions: inhibition of midazolam 1-hydroxylation; dependence on preincubation time and drug concentration (FIG. 1)
# Chain of CYP3A4 (P08684 whole entry): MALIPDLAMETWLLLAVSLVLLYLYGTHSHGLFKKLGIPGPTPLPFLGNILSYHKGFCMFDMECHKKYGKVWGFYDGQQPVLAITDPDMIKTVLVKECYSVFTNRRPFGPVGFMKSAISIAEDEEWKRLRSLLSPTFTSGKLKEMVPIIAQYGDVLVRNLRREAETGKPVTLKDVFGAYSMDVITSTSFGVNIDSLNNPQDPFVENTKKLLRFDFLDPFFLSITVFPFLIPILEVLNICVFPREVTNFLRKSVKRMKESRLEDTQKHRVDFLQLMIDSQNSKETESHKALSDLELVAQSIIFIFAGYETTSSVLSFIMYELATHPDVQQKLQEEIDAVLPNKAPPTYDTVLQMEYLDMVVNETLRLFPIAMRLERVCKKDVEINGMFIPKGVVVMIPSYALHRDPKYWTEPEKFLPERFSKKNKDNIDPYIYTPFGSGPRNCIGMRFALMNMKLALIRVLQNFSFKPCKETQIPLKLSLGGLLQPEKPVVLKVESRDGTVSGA
# Procedure: Mechanism-based inhibition (MBI) of CYP3A4 was evaluated by using inhibition of hydroxylation at position 1 of midazolam.
# E. coli strain E77156 = experiment: rat simple cystitis model (E. coli); assay type: in vivo
# S. aureus, 209P = experiment: antibacterial activity (MIC), standard method of Japanese Society of Chemotherapy; conditions: Staphylococcus aureus
# [6] = set-up: species or system guinea pigs (Slc:Hertley); conditions: male, Slc:Hertley, guinea pig, in vivo
# Procedure: Guinea pig maximization test (GPMT) which is a widely accepted model for delayed antigenicity was conducted according to the method of Mugnusson et al. (J. invest. Dermatol., 52, 1969) by using a cutaneous sensitization concentration of 1% and a patch sensitization and induction concentration of 10%. At day 1, the animal was sensitized by cutaneously administering the test substance (the quinolone compounds and the control: vehicle, vaseline) (1% solution in physiological saline+FCA emulsion) at the back of the head of the shaved guinea pigs (7 week old male Slc:Hertley). At day 7, lauryl sodium sulfate (SLC) was applied for stimulus (adjuvant treatment), and on the next day, the test substance coated on a wax paper was patched onto the shaved skin to for sealed sensitization, and after 48 hours (at day 10), the waxed paper was removed. The skin reaction was observed upon the removal. On day 22, the test substance (10%) was patched onto the anterior side of the body for induction, and the induction patching was removed after 24 hours. On the next day (at day 24) and the next day (at day 25), the skin reaction was evaluated according to the description of the document as mentioned above. Erythema and edema were scored, and the case with the total score of 2 or higher was evaluated to be positive with the maximum of the score being 7.
# E. coli NIHJ = experiment: antibacterial activity (MIC), standard method of Japanese Society of Chemotherapy; conditions: Escherichia coli
# [7] = system: S. aureus, 87037 (LVFX-resistant MRSA); experiment: as above; conditions: Staphylococcus aureus, MRSA, S. aureus, 87037 (LVFX-resistant MRSA)
# [8] = system: bone marrow cells (polychromatic erythrocytes); experiment: mouse bone marrow micronucleus test; assay type: in vivo, Slc:ddY male mice; conditions: single i.v. dose, 24 h, Example 2: 50, 100 mg/kg, Example 3: 100, 150 mg/kg, Example 9: 50, 100, 150 mg/kg
# Procedure: The control was 0.1 mol/l NaOH/physiological saline solvent, and the positive control was cyclophosphamide (cyclophoshamide, CP) dissolved and diluted in physiological saline. All samples were sterilized by filtering through Milex GS filter (0.22 μm). Each solution was intravenously administered at a dose of 10 mL/kg in single dose at an administration rate of 0.2 mL/min.
# Bone marrow cells were collected from thigh bone at 24 hours after the administration, and smear preparation was prepared. After staining with acridine orange, 1000 polychromatic erythrocytes per animal were observed under fluorescence microscope to count frequency of micrronucleated polychromatic erythrocyte and ratio of the orthochromatic erythrocytes to the polychromatic erythrocyte in 1000 erythrocytes.
# S. marscecens, 10100 = experiment: antibacterial activity (MIC), standard method of Japanese Society of Chemotherapy
# [9] = system: penicillin resistant Streptococcus pneumoniae (PRSP) strain 033806; experiment: mouse local lung infection model by PRSP
# hERG K+ channel = hERG K+ channel (Homo sapiens, UniProt Q12809); experiment: hERG-K^+ channel blocking effect
# Chain of hERG K+ channel (Q12809 whole entry): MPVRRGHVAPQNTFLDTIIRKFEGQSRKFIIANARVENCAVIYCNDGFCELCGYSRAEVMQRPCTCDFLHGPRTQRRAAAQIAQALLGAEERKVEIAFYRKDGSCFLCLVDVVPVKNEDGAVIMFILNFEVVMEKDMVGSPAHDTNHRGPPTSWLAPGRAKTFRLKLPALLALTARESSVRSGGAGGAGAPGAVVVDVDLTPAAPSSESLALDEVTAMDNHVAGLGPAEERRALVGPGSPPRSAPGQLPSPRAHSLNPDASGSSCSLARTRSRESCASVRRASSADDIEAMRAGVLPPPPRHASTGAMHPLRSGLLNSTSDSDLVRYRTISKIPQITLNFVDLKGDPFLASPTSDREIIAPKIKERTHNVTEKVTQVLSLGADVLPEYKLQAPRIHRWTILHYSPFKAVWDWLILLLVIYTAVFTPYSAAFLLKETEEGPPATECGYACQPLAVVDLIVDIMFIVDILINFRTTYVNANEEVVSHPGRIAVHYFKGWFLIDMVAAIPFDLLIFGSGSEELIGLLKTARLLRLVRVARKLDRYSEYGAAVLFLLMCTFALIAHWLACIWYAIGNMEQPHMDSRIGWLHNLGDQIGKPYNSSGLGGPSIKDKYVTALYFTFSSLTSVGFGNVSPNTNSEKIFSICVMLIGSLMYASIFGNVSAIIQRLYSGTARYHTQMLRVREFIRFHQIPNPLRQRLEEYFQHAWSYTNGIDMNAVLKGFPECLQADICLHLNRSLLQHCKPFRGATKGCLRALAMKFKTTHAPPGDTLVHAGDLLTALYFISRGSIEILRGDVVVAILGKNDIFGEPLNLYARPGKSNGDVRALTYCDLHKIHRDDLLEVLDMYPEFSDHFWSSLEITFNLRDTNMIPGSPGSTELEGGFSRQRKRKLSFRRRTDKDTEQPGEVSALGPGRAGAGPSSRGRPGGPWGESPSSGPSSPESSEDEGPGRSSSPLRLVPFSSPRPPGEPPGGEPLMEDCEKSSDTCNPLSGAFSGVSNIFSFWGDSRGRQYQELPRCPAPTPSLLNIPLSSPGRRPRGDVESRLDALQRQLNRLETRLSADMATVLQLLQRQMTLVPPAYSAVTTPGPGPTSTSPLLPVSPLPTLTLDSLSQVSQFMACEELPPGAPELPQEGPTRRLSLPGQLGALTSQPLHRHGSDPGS
# [10] = (with BPAA 400 mg/kg oral, 30 minutes before)
# 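For Excretion rate in urine, times higher than Comparative compound 1 in this document: fasted 7-week-old rats, three per group, tissue sampled up to 8 h post-dose and urine collected over 0–24 h, with conjugates measured after alkaline hydrolysis, concentrations by LC-MS/MS.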
# 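For Recovery (%) in urine in relation to the amount administered, Recovery (%) including conjugate in this document: fasted 7-week-old rats, three per group, tissue sampled up to 8 h post-dose and urine collected over 0–24 h, with conjugates measured after alkaline hydrolysis, concentrations by LC-MS/MS.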
# 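For Tissue AUC0-8 h, Kidney in this document: fasted 7-week-old rats, three per group, tissue sampled up to 8 h post-dose and urine collected over 0–24 h, with conjugates measured after alkaline hydrolysis, concentrations by LC-MS/MS.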
# 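For serum concentration and tissue concentration, times higher than Comparative compound 1 in this document: fasted 7-week-old rats, three per group, tissue sampled up to 8 h post-dose and urine collected over 0–24 h, with conjugates measured after alkaline hydrolysis, concentrations by LC-MS/MS.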
smiles,measurement,setting,value
"COc1c(N2CC(C)(N)C3(CC3)C2)c(F)cc2c(=O)c(C(=O)O)cn([C@@H]3C[C@@H]3F)c12 (stereo partly drawn) [Example 9, 7-(7-Amino-7-methyl-5-azaspiro[2.4]heptan-5-yl)-6-fluoro-1-[(1R,2S)-2-fluorocyclopropyl]-8-methoxy-1,4-dihydro-4-oxoquinoline-3-carboxylic acid]",MIC,"[1]; H37RV, strain H37Rv",0.03 µg/mL
same,MIC,[1]; strain Kurono,0.03 µg/mL
same,MIC,[1]; strain Ravenel,0.03 µg/mL
same,MIC,[1]; strain TB-s 2,0.06 µg/mL
same,MIC,[1]; strain TB-s 3,0.06 µg/mL
same,MIC,[1]; strain TB-s 4,0.06 µg/mL
same,MIC,[1]; strain TB-s 5,0.06 µg/mL
same,MIC,[1]; strain TB-s 6,0.06 µg/mL
same,MIC,[1]; strain TB-s 7,0.06 µg/mL
same,MIC,[1]; strain TB-s 8,0.03 µg/mL
same,MIC,[1]; strain TB-s 9,0.06 µg/mL
same,MIC,[1]; strain TB-s 10,0.03 µg/mL
same,MIC,[1]; strain TB-s 11,0.06 µg/mL
same,MIC,[1]; strain TB-s 12,0.125 µg/mL
same,MIC,[1]; strain TB-s 13,0.06 µg/mL
same,MIC,[1]; strain TB-s 14,0.06 µg/mL
same,MIC,[1]; strain TB-s 15,0.06 µg/mL
same,MIC,[1]; strain TB-s 16,0.06 µg/mL
same,MIC,[1]; strain TB-s 17,0.06 µg/mL
same,MIC,[1]; strain TB-s 18,0.06 µg/mL
same,MIC,[1]; strain TB-s 19,0.06 µg/mL
same,MIC,[1]; strain TB-s 20,0.06 µg/mL
same,MIC,[1]; strain TB-s 21,0.06 µg/mL
same,MIC,[1]; strain TB-s 22,0.03 µg/mL
same,convulsant activity (animals affected / 6 animals per group),[2]; 5 μg/mouse intracisternal,0/6
same,convulsant activity (animals affected / 6 animals per group),[2]; 15 μg/mouse intracisternal,2/6
same,convulsant activity (animals affected / 6 animals per group),[2]; 50 μg/mouse intracisternal,6/6
same,MIC,"P. aeruginosa, 32121",0.2 µg/mL
same,MIC,[3],0.1 µg/mL
same,Number of animals which showed convulsion,[4]; [10],0/6 (0/6)
same,number of dead animals,[4]; [10],0/6 (0/6)
same,Number of animals which showed convulsion,[4]; (without BPAA),0/6 (0/6)
same,number of dead animals,[4]; (without BPAA),0/6 (0/6)
same,"Excretion rate in urine, times higher than Comparative compound 1","[5]; male, Crj:CD IGS",about 1.5 times
same,"serum concentration and tissue concentration, times higher than Comparative compound 1","[5]; male, Crj:CD IGS",about 2 times
same,"Recovery (%) in urine in relation to the amount administered, Recovery (%) including conjugate","[5]; male, Crj:CD IGS, 5 mg/kg",32.0%
same,"Tissue AUC0-8 h, Kidney","[5]; male, Crj:CD IGS, 5 mg/kg",27800 ng·h/mL
same,"Tissue AUC0-8 h, Liver","[5]; male, Crj:CD IGS, 5 mg/kg",32100 ng·h/mL
same,"Tissue AUC0-8 h, Lung","[5]; male, Crj:CD IGS, 5 mg/kg",13700 ng·h/mL
same,"Tissue Cmax, Kidney","[5]; male, Crj:CD IGS, 5 mg/kg",9.88 µg/g
same,"Tissue Cmax, Liver","[5]; male, Crj:CD IGS, 5 mg/kg",13.7 µg/g
same,"Tissue Cmax, Lung","[5]; male, Crj:CD IGS, 5 mg/kg",3.86 µg/g
same,"AUC value, times higher than Comparative compound 1",[5],1.5-2 times
same,mechanism-based inhibition (MBI) of CYP3A4,CYP3A4,weak inhibition
same,therapeutic effect compared with Comparative Compound 1,E. coli strain E77156; oral single dose 5 mg/kg/day,significantly stronger than the Comparative Compound 1
same,number of bacteria in the bladder,"E. coli strain E77156; oral single dose 20 or 80 mg/kg/day, next day of administration (FIG. 4)",significant decrease in the number of bacteria
same,MIC,"S. aureus, 209P",0.025 µg/mL
same,Average score in GPMT,[6],0
same,MIC,E. coli NIHJ,0.025 µg/mL
same,MIC,[7],0.78 µg/mL
same,"micronucleus induction rate versus control, evaluation result",[8],negative
same,MIC,"S. marscecens, 10100",0.1 µg/mL
same,therapeutic effect (number of bacteria in the lung) compared with comparative compound 1 at the same dose,"[9]; CBA/JNCrlj mice, oral at 2 and 8 hours after infection, 25, 50, and 100 mg/kg/day (FIG. 2)",no significant difference
same,in vivo antibacterial activity for the test bacteria relative to comparative compound 1,[9]; PRSP strain 033806,about ¼
same,inhibition at 30 µM,hERG K+ channel,7.4 ± 4.5%
same,inhibition at 100 µM,hERG K+ channel,10.2 ± 5.4%
same,inhibition at 300 µM,hERG K+ channel,20.1 ± 7.4%
